Consider 23 compounds from ChEMBL document CHEMBL1153927, “Benzimidazolone-based serotonin 5-HT1A or 5-HT7R ligands: synthesis and biological evaluation” (Bioorg Med Chem Lett, 2009).

Assay [1] has as its target T1, 5-hydroxytryptamine receptor 1A (Rattus norvegicus, UniProt P19327).
T1 sequence (P19327 whole entry): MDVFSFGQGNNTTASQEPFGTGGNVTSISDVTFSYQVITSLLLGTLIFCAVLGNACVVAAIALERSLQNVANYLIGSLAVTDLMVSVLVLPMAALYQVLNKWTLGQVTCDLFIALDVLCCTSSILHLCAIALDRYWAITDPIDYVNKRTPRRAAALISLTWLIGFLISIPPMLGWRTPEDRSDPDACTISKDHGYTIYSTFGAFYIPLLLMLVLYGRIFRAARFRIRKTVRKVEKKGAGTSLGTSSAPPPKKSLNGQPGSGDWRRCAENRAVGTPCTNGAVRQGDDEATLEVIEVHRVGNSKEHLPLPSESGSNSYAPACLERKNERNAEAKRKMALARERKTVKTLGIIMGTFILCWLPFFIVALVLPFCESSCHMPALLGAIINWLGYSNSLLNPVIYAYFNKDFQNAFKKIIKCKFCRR
Nature of the assay: Inhibition of rat hippocampus 5HT1A receptor by competitive binding assay. It counts as tissue-based.

Assay [2] concerns the target 5-hydroxytryptamine receptor 7 (Homo sapiens, UniProt P34969). Description: Inhibition of human 5HT7 receptor expressed in HEK293 cells by competitive binding assay. It counts as cell-based.

A word on the Ki: it is the dissociation constant of the complex between target and ligand, obtained from inhibition or displacement.

Sequence of 5-hydroxytryptamine receptor 7 (P34969 whole entry): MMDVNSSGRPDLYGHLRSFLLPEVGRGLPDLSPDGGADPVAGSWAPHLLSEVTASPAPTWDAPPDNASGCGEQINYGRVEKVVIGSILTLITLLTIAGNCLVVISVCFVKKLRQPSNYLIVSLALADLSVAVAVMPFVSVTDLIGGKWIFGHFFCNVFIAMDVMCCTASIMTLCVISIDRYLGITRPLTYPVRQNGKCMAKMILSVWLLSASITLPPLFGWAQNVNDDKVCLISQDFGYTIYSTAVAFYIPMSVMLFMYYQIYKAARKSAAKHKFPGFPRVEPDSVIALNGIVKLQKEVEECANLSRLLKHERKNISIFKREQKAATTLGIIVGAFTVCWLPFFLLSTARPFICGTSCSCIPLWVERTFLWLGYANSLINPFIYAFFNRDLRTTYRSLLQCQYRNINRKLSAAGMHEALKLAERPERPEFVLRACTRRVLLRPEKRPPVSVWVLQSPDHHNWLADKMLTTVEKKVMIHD

Take `COc1ccc(-n2c(=O)n(CCCN3CCN(c4ccccc4OC)CC3)c3ccccc32)cc1`: the Ki is 26 nM in assay [1] and 168 nM in assay [2].
Consider `O=c1[nH]c2ccccc2n1CCCCCN1CCN(c2ccccc2)CC1`, for which the results for the inhibition constant (Ki) in assay [1] and in assay [2] were 269 nM and 6 nM, respectively.
For `COc1ccccc1N1CCN(CCCn2c(=O)[nH]c3ccccc32)CC1`, the results for the Ki in assay [1] and in assay [2] were 3.4 nM and 40 nM, respectively.
The matching figures for `COc1cccc(-n2c(=O)n(CCN3CCN(c4ccccc4C)CC3)c3ccccc32)c1`: 182 nM and 2500 nM.
Regarding `O=c1n(CCN2CCN(c3ccccc3)CC2)c2ccccc2n1-c1ccccc1`, the Ki in assay [1] turned out to be 467 nM; in assay [2], 1230 nM.
With `Cc1ccccc1N1CCN(CCn2c(=O)n(-c3ccccc3)c3ccccc32)CC1`, the Ki in assay [1] is 168 nM; in assay [2], 1870 nM.
For `O=c1[nH]c2ccccc2n1CCCCCN1CCN(c2cccc(Cl)c2)CC1`, in that order: 66 nM and 11 nM.
On to `O=c1[nH]c2ccccc2n1CCCCCN1CCN(c2ccc(Cl)cc2)CC1`, for which the Ki in assay [1] amounted to 454 nM; in assay [2], 7 nM.
For the compound `COc1ccccc1N1CCN(CCCCCCn2c(=O)[nH]c3ccccc32)CC1`, the inhibitory constant (Ki) amounted to 12 nM in assay [1] and 78 nM in assay [2].
In the case of `COc1ccccc1N1CCN(Cc2ccn(-c3ccccc3C)c2)CC1`, affinity in assay [2] was put at a Ki of 4.3 nM. This counts as single-digit nanomolar.
On to `COc1cccc(-n2c(=O)n(CCN3CCN(c4ccccc4)CC3)c3ccccc32)c1`, for which the Ki in assay [1] was found to be 646 nM; in assay [2], 864 nM.
With `COc1ccc(-n2c(=O)n(CCCCN3CCN(c4ccccc4OC)CC3)c3ccccc32)cc1`, the inhibition constant Ki in assay [1] stood at 36 nM; in assay [2] it was 267 nM.
For `COc1ccc(-n2c(=O)n(CCN3CCN(c4ccccc4OC)CC3)c3ccccc32)cc1`, in that order: 22 nM and 296 nM.
Regarding `O=c1[nH]c2ccccc2n1CCN1CCN(c2ccccc2)CC1`, the results for the Ki in assay [1] and in assay [2] were 392 nM and 1030 nM, respectively.
On to `Cc1ccccc1-n1c(=O)n(CCN2CCN(c3ccccc3)CC2)c2ccccc21`, for which the Ki is 636 nM in assay [1] and 902 nM in assay [2].
In the case of `COc1ccccc1N1CCN(CCCCCn2c(=O)[nH]c3ccccc32)CC1`, the Ki in assay [1] was found to be 33 nM; in assay [2], 38 nM.
The matching figures for `O=c1[nH]c2ccccc2n1CCCCN1CCN(c2ccccc2)CC1`: 84 nM and 48 nM.
Take `Cc1ccccc1N1CCN(CCn2c(=O)n(-c3ccccc3C)c3ccccc32)CC1`: the Ki in assay [1] is 375 nM; in assay [2], 18000 nM.
For `COc1ccccc1N1CCN(CCn2c(=O)[nH]c3ccccc32)CC1`, in that order: 25 nM and 1840 nM.
The matching figures for `COc1ccccc1N1CCN(CCCCn2c(=O)[nH]c3ccccc32)CC1`: 6 nM and 26 nM.
The matching figures for `O=c1[nH]c2ccccc2n1CCCCCCN1CCN(c2ccccc2)CC1`: 48 nM and 20 nM.
Take `COc1ccc(-n2c(=O)n(CCN3CCN(c4ccccc4)CC3)c3ccccc32)cc1`: the Ki amounted to 340 nM in assay [1] and 566 nM in assay [2].
For the compound `O=c1[nH]c2ccccc2n1CCCN1CCN(c2ccccc2)CC1`, the Ki in assay [1] amounted to 26 nM; in assay [2] it was 243 nM.
